Values of other authors in publication PMC10070485, “In silico study of HASDI (high-affinity selective DNA intercalator) as a new agent capable of highly selective recognition of the DNA sequence” (Scientific Reports, 2023).

Experiments:
A-T base pairs = settings: fluorescence titrations
[1] = test system: DNA sequences of the d(ATGCAT)2 type; parameters: method as in PMID 34299405; settings: diamine linker in the major groove
DNA sequences [2] = test system: DNA sequences; parameters: method as in PMID 31820194; settings: MD, MM-PB(GB)SA, DFT
DNA sequences [3] = test system: DNA sequences; parameters: method as in PMID 24446378; settings: docking, MD, MM-PBSA, MESP

Compound: neomycin-Hoechst 33258-pyrene conjugate
- number of A-T base pairs selectively recognized (A-T base pairs): up to 9

Compound: Cc1cccc2nc3cccc(C(=O)NCCNCCNCCNC(=O)c4cccc5nc6cccc(C)c6nc45)c3nc12 [MLN944]
- DNA sequence type of greatest affinity [1]: d(ATGCAT)2

Compound: COc1cccc2c1C(=O)c1c(O)c3c(c(O)c1C2=O)C[C@@](O)(C(C)=O)C[C@@H]3O[C@H]1C[C@H](N)[C@H](O)[C@H](C)O1 [daunomycin]
- DNA sequence specificity (DNA sequences [2]): highest affinity for TC/GA rich sequences

Compound: Nc1cccc2oc(-c3ccccc3)cc(=O)c12 [AMF, 5-aminoflavone]
- DNA groove specificity (DNA sequences [3]): stable in the minor groove of AT-rich DNA and in the major groove of GC-rich DNA

Compound: Cc1cc(-c2nc3cc(F)ccc3s2)ccc1N [5F]
- DNA groove specificity (DNA sequences [3]): affinity only to the minor groove
